In assay [1] the test system is HL-60. As to the kind of experiment: Cell cycle arrest in human HL60 cells assessed as accumulation at sub-G0/G1 phase at IC50 after 24 hrs by propidium iodide staining based flow cytometric method (reference value: 3.9%). Format: functional. A general note: In flow cytometry, cells or beads pass a laser one at a time.
In assay [2] the test system is HL-60. Briefly: Cell cycle arrest in human HL60 cells assessed as accumulation at S-phase at IC50 after 24 hrs by propidium iodide staining based flow cytometric method (reference value: 34.24%). It counts as functional.
Assay [3] concerns HL-60. As to the kind of experiment: Cell cycle arrest in human HL60 cells assessed as accumulation at G0/G1 phase at IC50 after 24 hrs by propidium iodide staining based flow cytometric method (reference value: 51.7%). Format: functional.
The subject of assay [4] is HL-60. Briefly: Cell cycle arrest in human HL60 cells assessed as accumulation at G2/M-phase at IC50 after 24 hrs by propidium iodide staining based flow cytometric method (reference value: 14.06%). It counts as functional.
Assay [5] deals with MCF7. As to the kind of experiment: Antiproliferative activity against human MCF7 cells after 24 hrs by XTT assay. It counts as functional, cell-based. The conditions noted are these: MCF7, 24 h.
The test system of assay [6] is MCF7. As to the kind of experiment: Induction of apoptosis in human MCF7 cells assessed as DNA condensation at IC50 after 24 hrs by DAPI staining based immunofluorescence microscopic analysis. Format: functional, cell-based.
The subject of assay [7] is DNA. Briefly: Binding affinity to Escherichia coli supercoiled pBR322 DNA assessed as DNA structural variation at 0.1 to 0.5 molar ratio per nucleotide incubated for 24 hrs under dark condition by ethidium bromide staining based agarose gel electrophoresis. It counts as nucleic-acid assay.
Assay [8] has as its system DNA. As to the kind of experiment: Binding affinity to Escherichia coli supercoiled pBR322 DNA assessed as 3 to 5 cross links per DNA molecule at 0.005 molar ratio per nucleotide incubated for 24 hrs under dark condition by tapping mode atomic force microscopic analysis (reference value: 37%). Format: nucleic-acid assay.
The subject of assay [9] is DNA. Briefly: Binding affinity to Escherichia coli supercoiled pBR322 DNA assessed as 9 to 10 cross links per DNA molecule at 0.005 molar ratio per nucleotide incubated for 24 hrs under dark condition by tapping mode atomic force microscopic analysis (reference value: 2%). It counts as nucleic-acid assay.
Assay [10] has as its system MCF7. Briefly: Cell cycle arrest in human MCF7 cells assessed as accumulation at sub-G0/G1 phase at IC50 after 24 hrs by propidium iodide staining based flow cytometric method. It counts as functional.
Assay [11] deals with HL-60. Briefly: Induction of apoptosis in human HL60 cells assessed as late apoptotic cells at IC50 after 24 hrs by annexin-V-FITC/propidium iodide staining based flow cytometric analysis (reference value: 1.93%). Format: functional.
Assay [12] has as its system DNA. Briefly: Binding affinity to Escherichia coli supercoiled pBR322 DNA assessed as DNA undergoing kinks at 0.005 molar ratio per nucleotide incubated for 24 hrs under dark condition by tapping mode atomic force microscopic analysis. It counts as nucleic-acid assay.
The subject of assay [13] is DNA. Briefly: Binding affinity to Escherichia coli supercoiled pBR322 DNA assessed as supercoiled areas of plasmid DNA at 0.005 molar ratio per nucleotide incubated for 24 hrs under dark condition by tapping mode atomic force microscopic analysis (reference value: 3.5%). It counts as nucleic-acid assay.
Assay [14] has as its system MCF7. As to the kind of experiment: Cell cycle arrest in human MCF7 cells assessed as accumulation at G2/M-phase at IC50 after 24 hrs by propidium iodide staining based flow cytometric method. Format: functional.
The test system of assay [15] is HL-60. Briefly: Antiproliferative activity against human HL60 cells after 72 hrs by XTT assay. Format: functional, cell-based. The following applies: HL-60, 72 h. On the technique in general: Tetrazolium dyes change colour on reduction, which living cells bring about.
Assay [16] relates to HL-60. Briefly: Induction of apoptosis in human HL60 cells assessed as viable cells at IC50 after 24 hrs by annexin-V-FITC/propidium iodide staining based flow cytometric analysis (reference value: 93.81%). It counts as functional.
In assay [17] the test system is DNA. Briefly: Binding affinity to Escherichia coli supercoiled pBR322 DNA assessed as 0 to 2 cross links per DNA molecule at 0.005 molar ratio per nucleotide incubated for 24 hrs under dark condition by tapping mode atomic force microscopic analysis (reference value: 49%). It counts as nucleic-acid assay.
Assay [18] concerns HL-60. As to the kind of experiment: Induction of apoptosis in human HL60 cells assessed as necrotic cells at IC50 after 24 hrs by annexin-V-FITC/propidium iodide staining based flow cytometric analysis (reference value: 0.06%). Format: functional.
For assay [19], the system named is MCF7. As to the kind of experiment: Induction of apoptosis in human MCF7 cells assessed as reduction in cell size at IC50 after 24 hrs by DAPI staining based immunofluorescence microscopic analysis. Format: functional.
Assay [20] deals with DNA. As to the kind of experiment: Binding affinity to Escherichia coli supercoiled pBR322 DNA assessed as 6 to 8 cross links per DNA molecule at 0.005 molar ratio per nucleotide incubated for 24 hrs under dark condition by tapping mode atomic force microscopic analysis (reference value: 12%). It counts as nucleic-acid assay.
Assay [21] concerns MCF7. As to the kind of experiment: Induction of apoptosis in human MCF7 cells assessed as nuclear condensation at IC50 after 24 hrs by DAPI staining based immunofluorescence microscopic analysis. Format: functional, cell-based.
The test system of a further assay is Calf thymus DNA. As to the kind of experiment: Binding affinity to calf thymus DNA at 0.1 to 0.5 molar ratio per nucleotide incubated for 24 hrs under dark condition by circular dichroism spectral analysis. It counts as nucleic-acid assay. The conditions noted are these: Bos taurus. Background: Circular dichroism is the unequal absorption of left and right circularly polarised light.

In assay [22] the test system is MCF7. Briefly: Induction of apoptosis in human MCF7 cells assessed as cell blobbing at IC50 after 24 hrs by DAPI staining based immunofluorescence microscopic analysis. Format: functional.
Assay [23] relates to MCF7. As to the kind of experiment: Cell cycle arrest in human MCF7 cells assessed as accumulation at G0/G1 phase at IC50 after 24 hrs by propidium iodide staining based flow cytometric method. It counts as functional.
In assay [24] the test system is HL-60. As to the kind of experiment: Antiproliferative activity against human HL60 cells after 24 hrs by XTT assay. Format: functional, cell-based. The conditions noted are these: HL-60, 24 h.
Assay [25] relates to DNA. Briefly: Binding affinity to Escherichia coli supercoiled pBR322 DNA assessed as DNA undergoing cross links at 0.005 molar ratio per nucleotide incubated for 24 hrs under dark condition by tapping mode atomic force microscopic analysis. It counts as nucleic-acid assay.
In assay [26] the test system is DNA. As to the kind of experiment: Binding affinity to Escherichia coli supercoiled pBR322 DNA assessed as more than 10 cross links per DNA molecule at 0.005 molar ratio per nucleotide incubated for 24 hrs under dark condition by tapping mode atomic force microscopic analysis (reference value: 1%). It counts as nucleic-acid assay.
Assay [27] has as its system MCF7. As to the kind of experiment: Induction of apoptosis in human MCF7 cells assessed as microtubule disintegration at IC50 after 24 hrs by indirect immunofluorescence analysis. Format: functional, cell-based.
The test system of assay [28] is MCF7. Briefly: Induction of apoptosis in human MCF7 cells assessed as formation of apoptotic bodies at IC50 after 24 hrs by DAPI staining based immunofluorescence microscopic analysis. Format: functional, cell-based.
The test system of assay [29] is MCF7. As to the kind of experiment: Induction of apoptosis in human MCF7 cells assessed as nuclear fragmentation at IC50 after 24 hrs by DAPI staining based immunofluorescence microscopic analysis. It counts as functional, cell-based.
For assay [30], the system named is MCF7. Briefly: Cell cycle arrest in human MCF7 cells assessed as accumulation at S-phase at IC50 after 24 hrs by propidium iodide staining based flow cytometric method. Format: functional.
Assay [31] relates to MCF7. As to the kind of experiment: Antiproliferative activity against human MCF7 cells after 72 hrs by XTT assay. It counts as functional, cell-based. The conditions noted are these: MCF7, 72 h.
The test system of assay [32] is HL-60. As to the kind of experiment: Induction of apoptosis in human HL60 cells assessed as early apoptotic cells at IC50 after 24 hrs by annexin-V-FITC/propidium iodide staining based flow cytometric analysis (reference value: 4.2%). Format: functional.
In assay [33] the test system is MCF7. As to the kind of experiment: Induction of apoptosis in human MCF7 cells assessed as shrinkage of cell core at IC50 after 24 hrs by DAPI staining based immunofluorescence microscopic analysis. It counts as functional.

The IC50 is the concentration that gives 50% inhibition. The low end stands for inhibition by little substance, the high end for a need for much substance.

Calls of active or inactive are those of the source. No cut-off for these calls is given here.

As to `COC(=O)Nc1nc2cc(C(=O)c3cccs3)ccc2[nH]1` [NOCODAZOLE], the Activity is 14.11% in the assay with HL-60 [1], 21.26% in the assay with HL-60 [2], 45.28% in the assay with HL-60 [3] and 33.46% with HL-60 [4].
`CC(=O)O[C@H](OCc1ccccc1)[C@]1(C)C(=O)[C@@H](I)C(=O)[C@@H](C)[C@@H]2CC[C@H]1O2`: the IC50 turned out to be 27.2 µM in the assay with MCF7 [5], 3.24 µM in the assay on HL-60 [15], 3.05 µM in the assay with HL-60 [24] and 18.8 µM with MCF7 [31]. Moreover, the outcome in the assay on MCF7 [6], in the assay with MCF7 [10], in the assay on MCF7 [19], in the assay on MCF7 [21], in the assay with MCF7 [22] and with MCF7 [23] was Active. In addition, the result in the assay on MCF7 [27], in the assay with MCF7 [28], in the assay on MCF7 [29], in the assay on MCF7 [30] and in the assay on MCF7 [33] was Active. Besides, the result with DNA [7], with DNA [12], with MCF7 [14], in the assay on Calf thymus DNA and with DNA [25] was inactive. Moreover, the Activity in the assay with DNA [8] stood at 28%; in the assay with DNA [9], 1%; in the assay with HL-60 [11], 26.85%; in the assay with DNA [13], 3.6%; in the assay with HL-60 [16], 55.71%; in the assay on DNA [17], 51%. Moreover, the Activity stood at 31.14% in the assay with HL-60 [1]; 0.35% in the assay on HL-60 [18]; 19% in the assay on DNA [20]; 1% in the assay with DNA [26]; 26.31% with HL-60 [2]; 67.37% in the assay with HL-60 [3]. In addition, the values for the Activity with HL-60 [4] and in the assay with HL-60 [32] were 6.33% and 16.97%, respectively.
In the case of `C[C@H]1[C@H]2CC[C@H](O2)[C@]2(C)[C@@H](OCc3ccccc3)C(=O)C[C@]12O` (relative stereo), the IC50 in the assay with MCF7 [5], in the assay with HL-60 [15], with HL-60 [24] and in the assay with MCF7 [31] was > 250 µM each time.

Source of the values: ChEMBL document CHEMBL4118201, “Design and synthesis of new antitumor agents with the 1,7-epoxycyclononane framework. Study of their anticancer action mechanism by a model compound” (Bioorg Med Chem, 2018).
